From patent publication US20110053951A1, “METHODS FOR TREATING DISORDERS USING NMDA NR2B-SUBTYPE SELECTIVE ANTAGONIST” (EVOTEC NEUROSCIENCES GMBH, priority 2008, published 2011)
Where a name gives a salt, the structure may show the parent alone.

Key:
healthy volunteers [1] = experiment: Continuous arterial spin labeling (CASL) perfusion MRI of regional cerebral blood flow (rCBF); assay type: in vivo, human; details: for increase in rCBF: anterior cingulate cluster
Procedure: (§1) A double blind, placebo controlled study was conducted in 19 healthy volunteers to investigate the role of NMDA receptor NR2B subunit selective antagonism on cognitive functions and neurophysiology as measured with magnetic resonance imaging (MRI). This study utilized functional MRI to determine changes in regional cerebral blood flow (rCBF) and the putative modulation of neural networks during performance of cognitive tasks by the subjects after they were administered the bis HCl salt of compound of formula (I).
The 19 healthy male volunteers who participated in this study were scanned using functional magnetic resonance imaging (fMRI) whilst performing cognitive tasks (including the PAL task described below in more detail) designed to measure associative learning, sustained attention, and episodic memory. These tasks were repeated on three study days two hours prior to the fMRI session. On these three separate occasions, the participants received a capsule containing either placebo (microcrystalline cellulose), 8 mg, or 15 mg of the bis HCl salt of compound of formula (I) such that all treatments were given to all participants. During the fMRI session, the tasks were presented in a randomized order to each subject; however, the order assigned was then maintained across all three study sessions. Additional practice on the tasks was offered to the participants before entering the scanner, and the instructions were repeated prior to each task being performed whilst in the scanner.
Images were acquired on a 1.5T GE Excite HDx system (General Electric, Milwaukee, Wis.). For all tasks a gradient-echo EPI sequence was used with TE=40 ms, FOV=24 cm, and in-plane resolution of 3.75 mm^2 (matrix=64^2). Thirty-eight axial slices with thickness 3 mm (0.3 mm gap) approximately parallel to the AC/PC line were obtained. For the paired associates learning task TR=3000 ms. In addition, a high-resolution image was acquired using single shot EPI with TR=3000 ms, TE=40 ms, FOV=24 cm, 3 mm slice thickness with 0.3 mm gap, matrix=128^2, and 43 slices. This image was used to determine coregistration parameters.
Whole-brain resting perfusion images were acquired with a continuous arterial spin labeling (CASL) sequence consisting of a pseudo-continuous flow-driven, adiabatic inversion scheme and a continuous 3D fast spin echo (FSE) sequence with an interleaved stack of variable density spirals acquisition (Alsop and Detre (1998) Multisection cerebral blood flow MR imaging with continuous arterial spin labeling. Radiology 208: 410-6). CASL perfusion images are able to delineate grey and white matter and provide high resolution quantification of rCBF across the whole brain. Because of the genuine 3-dimensional encoding and readout of this multi-shot technique, and the refocusing of magnetic susceptibility induced signal distortions, the maps of whole brain rCBF obtainable with this technique are of good image quality and exquisite spatial resolution.
For the perfusion images, brain volumes were first normalized into a standard anatomical space (International Consortium on Brain Mapping—ICBM), using affine registration and non-linear transformations. Normalization utilized a single image to which all three CASL sessions were coregistered in order to reduce the likelihood of preprocessing-dependent differences between the drug and placebo session images. All images were spatially smoothed using a Gaussian kernel full-width at half-maximum filter of 6×6×6 mm to improve signal-to-noise ratio and allow for inherent functional and gyral variability across participants.
Image preprocessing and analysis were carried out using Statistical Parametric Mapping software developed by the Functional Imaging Laboratory, UCL, (SPM v5.0, www.fillon.ucl.ac.ulc/spm/)., running under Matlab 7.0.1, and a blood oxygen level dependency (BOLD) was determined. BOLD changes to cognitive tasks represent changes of neuronal activities of respective brain areas.

healthy volunteers [2] = experiment: fMRI (BOLD) during Paired Associates Learning (PAL) task; assay type: in vivo, human
Procedure: as §1
The 19 healthy male volunteers who participated in this study were scanned using functional magnetic resonance imaging (fMRI) whilst performing cognitive tasks (including the PAL task described below in more detail) designed to measure associative learning, sustained attention, and episodic memory. These tasks were repeated on three study days two hours prior to the fMRI session. […]
Image preprocessing and analysis were carried out using Statistical Parametric Mapping software developed by the Functional Imaging Laboratory, UCL, (SPM v5.0, www.fillon.ucl.ac.ulc/spm/)., running under Matlab 7.0.1, and a blood oxygen level dependency (BOLD) was determined. […]

[3] = tested on: healthy young and elderly subjects; experiment: Double-blind, placebo-controlled, single and multiple oral dose safety and tolerability study; assay type: in vivo, human
Procedure: A double-blind, placebo-controlled, randomized, single, and multiple oral dose study was conducted in order to determine safety and tolerability of the bis HCl salt of compound of formula (I) in healthy young and elderly subjects. The study was conducted in two parts.
Part 1 comprised an ascending single dose, sequential group study in 48 young male subjects, incorporating a two-period crossover arm to investigate the effect of food. Part 2 comprised an ascending multiple dose, sequential group study in 24 young male subjects and an ascending single and multiple dose, sequential group study in 18 elderly subjects (10 males and 8 females) subjects. On each dosing occasion, the subjects received a single capsule containing the appropriate amount of either the bis HCl salt of compound of formula (I) or microcrystalline cellulose. Treatments were administered orally with 240 ml water while the subjects were in a standing position.
The condition of each subject was monitored throughout the study. In addition, any signs and symptoms were observed and elicited at least once a day by open questioning, such as “How have you been feeling since you were last asked?” Subjects were also encouraged to report spontaneously any adverse events during the study.
Any adverse events or remedial actions were recorded. The nature, time of onset, duration, and severity were documented. Any clinically significant abnormalities found during the course of the study were followed up until they returned to normal or could be clinically explained.
A serious adverse event is defined as any untoward medical occurrence that at any dose either results in death, is life-threatening, requires inpatient hospitalization, or prolongs existing hospitalization, results in persistent or significant disability/incapacity, and/or results in a congenital anomaly/birth defect.
Important medical events that may not result in death, be life-threatening, or require hospitalization may be considered to be serious adverse events when, based upon appropriate medical judgment, they may jeopardize the subject or may require medical or surgical intervention to prevent one of the above-described outcomes.

[4] = biological target: NR2B subtype of the NMDA receptor (Homo sapiens, UniProt Q05586+Q13224); experiment: Receptor occupancy estimated by extrapolation from CSF concentrations; assay type: in vivo; details: daily dose of 8 mg; extrapolated from CSF concentrations; compared with therapeutic dosages of memantine
Sequence of NR2B subtype of the NMDA receptor (Q13224 27-1484, other chains not shown): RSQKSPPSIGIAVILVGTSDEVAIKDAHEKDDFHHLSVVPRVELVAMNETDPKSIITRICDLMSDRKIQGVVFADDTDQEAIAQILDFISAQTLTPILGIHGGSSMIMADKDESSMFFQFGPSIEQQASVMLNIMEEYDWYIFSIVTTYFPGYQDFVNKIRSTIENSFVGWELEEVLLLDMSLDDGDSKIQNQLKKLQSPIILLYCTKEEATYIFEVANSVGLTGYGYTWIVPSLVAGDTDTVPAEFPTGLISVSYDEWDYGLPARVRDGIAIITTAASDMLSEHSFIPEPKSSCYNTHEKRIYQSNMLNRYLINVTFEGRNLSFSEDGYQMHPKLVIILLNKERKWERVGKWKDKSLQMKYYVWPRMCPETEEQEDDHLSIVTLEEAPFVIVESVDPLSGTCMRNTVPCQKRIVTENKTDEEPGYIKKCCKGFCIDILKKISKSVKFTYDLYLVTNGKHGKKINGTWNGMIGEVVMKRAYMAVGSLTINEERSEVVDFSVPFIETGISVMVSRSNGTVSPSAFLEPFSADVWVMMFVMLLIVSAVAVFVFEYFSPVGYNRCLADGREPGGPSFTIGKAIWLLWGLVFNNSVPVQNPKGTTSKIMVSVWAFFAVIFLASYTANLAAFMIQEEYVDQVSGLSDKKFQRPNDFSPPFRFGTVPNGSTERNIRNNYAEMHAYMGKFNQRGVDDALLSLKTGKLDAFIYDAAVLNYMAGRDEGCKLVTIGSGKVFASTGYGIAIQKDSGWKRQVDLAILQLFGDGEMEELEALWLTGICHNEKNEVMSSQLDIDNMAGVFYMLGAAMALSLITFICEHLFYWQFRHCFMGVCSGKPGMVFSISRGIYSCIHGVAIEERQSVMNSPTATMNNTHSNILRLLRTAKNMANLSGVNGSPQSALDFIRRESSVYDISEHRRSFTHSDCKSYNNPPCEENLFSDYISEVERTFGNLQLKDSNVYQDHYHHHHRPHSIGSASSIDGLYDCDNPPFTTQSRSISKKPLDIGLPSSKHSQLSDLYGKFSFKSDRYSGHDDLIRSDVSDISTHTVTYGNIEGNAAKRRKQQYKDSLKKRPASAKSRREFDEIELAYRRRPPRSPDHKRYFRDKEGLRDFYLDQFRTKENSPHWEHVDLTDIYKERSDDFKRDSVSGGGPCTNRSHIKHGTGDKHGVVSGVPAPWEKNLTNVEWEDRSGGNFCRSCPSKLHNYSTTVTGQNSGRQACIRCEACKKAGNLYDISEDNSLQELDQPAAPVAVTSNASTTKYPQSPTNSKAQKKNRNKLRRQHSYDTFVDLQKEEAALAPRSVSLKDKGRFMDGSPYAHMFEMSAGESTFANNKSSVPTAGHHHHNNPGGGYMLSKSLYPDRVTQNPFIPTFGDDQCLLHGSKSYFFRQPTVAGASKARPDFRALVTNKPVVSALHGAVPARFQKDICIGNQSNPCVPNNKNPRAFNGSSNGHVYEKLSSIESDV
Procedure: CSF samples were stored immediately in an upright position at a temperature of −70° C. or below until shipment. Compound of formula (I) concentrations were measured by a specific and validated LC-MS-MS method. […] Such concentrations in the CSF have been extrapolated to estimate the extent of occupancy of the NR2B subtype of the NMDA receptor.

[5] = Cerebrospinal fluid (CSF) penetration by lumbar puncture, LC-MS-MS; assay type: in vivo, human; details: 8 mg daily for 8 days, six healthy subjects, 3 to 4 hours after dosing on day 8
Procedure: One lumbar puncture per subject was performed on day 8 of treatment (daily dose of 8 mg of bis HCl salt of the compound of formula (I)), in the timeframe of 3 to 4 hours after dosing.
All care was taken to avoid contamination of the collected CSF sample with blood. Thus, only clear CSF was collected, after blood-contaminated liquid has left the cannula. Bloody taps were discarded.
Samples were aliquoted per time point for the measurement of compound of formula (I) as follows: a 0.5 ml CSF sample was aliquoted in empty dry polypropylene tubes from the ≈5 ml CSF collected at each scheduled time point.
CSF samples were stored immediately in an upright position at a temperature of −70° C. or below until shipment. Compound of formula (I) concentrations were measured by a specific and validated LC-MS-MS method. Cerebrospinal fluid (CSF) penetration has been assessed in six healthy subjects receiving 8 mg of bis HCl salt of compound of formula (I) daily for 8 days. […] Such concentrations in the CSF have been extrapolated to estimate the extent of occupancy of the NR2B subtype of the NMDA receptor. […] The selectivity of the compound of formula (I) and salts thereof in combination with the good penetration of the blood brain barrier at well-tolerated dosages according to the present invention provides a therapeutic advantage.

[6] = throughout the study, young and elderly subjects

SMILES | decreases in rCBF (healthy volunteers [1]; 8 mg and 15 mg oral) | areas of increased/decreased perfusion (healthy volunteers [1]; 8 mg oral vs placebo) | increase in rCBF (healthy volunteers [1]; 8 mg oral) [%] | rCBF, direct comparison with placebo (healthy volunteers [1]; 15 mg oral, anterior cingulate) | increase in rCBF (healthy volunteers [1]; 15 mg oral) [%] | rCBF normalized to global signal, main effect of drug (healthy volunteers [1]; averaged over 8 mg and 15 mg vs placebo, genu of the anterior cingulate cortex) | dose response relationship of perfusion between 8 mg and 15 mg (healthy volunteers [1]; formal comparison across the entire brain volume, ignoring placebo) | global perfusion (whole brain) (healthy volunteers [1]; placebo, 8 mg and 15 mg oral, CASL perfusion maps) | regional effects on absolute perfusion (healthy volunteers [1]; placebo, 8 mg and 15 mg, threshold p=0.05 corrected across whole brain) | functional performance of subjects in PAL (healthy volunteers [2]; 8 mg and 15 mg oral, healthy young subjects) | BOLD signal during retrieval in memory retrieval network (healthy volunteers [2]; placebo, 8 mg, 15 mg oral, PAL task, preliminary analysis) | tolerability ([3]; elderly males and females, multiple oral doses (over 8 days) of up to 3 mg twice daily) | tolerability ([3]; elderly males and females, single oral doses of up to 4 mg) | vital signs and electrocardiogram (ECG) parameters ([3]; following single or multiple dosing in young or elderly subjects) | incidence of adverse events [3, 6] | serious or severe adverse events [3, 6] | tolerability ([3]; young males, multiple oral doses (over 8 days) of up to 8 mg once daily) | tolerability ([3]; young males, single oral doses of up to 15 mg (including 2, 5 and 10 mg)) | receptor occupancy [4] | CSF concentration relative to plasma concentration [5]
Cc1nccn1Cc1cc(-c2ccc(F)c(C(F)F)c2)cnn1 [bis HCl salt of compound of formula (I), 5-(3-difluoromethyl-4-fluoro-phenyl)-3-(2-methyl-imidazol-1-yl-methyl)-pyridazine] | no clusters of voxels showing significant decreases in rCBF | No statistically significant changes | 17.5 | highly significant cluster of increased rCBF | 17.9 | increased signal | No changes were seen | no difference across the three conditions studied | no significant clusters where signal differed | unaffected | dose dependent increases in BOLD signal | very well tolerated | very well tolerated | no apparent trends | low incidence of mainly mild adverse events | no serious or severe adverse events | very well tolerated | very well tolerated | – | –
Cc1nccn1Cc1cc(-c2ccc(F)c(C(F)F)c2)cnn1 [compound of formula (I), 5-(3-difluoromethyl-4-fluoro-phenyl)-3-(2-methyl-imidazol-1-yl-methyl)-pyridazine] | – | – | – | – | – | – | – | – | – | – | – | – | – | – | – | – | – | – | greater than that, which corresponds to currently used therapeutic dosages of memantine | largely corresponds to the free (unbound) plasma concentrations
